Test results published in patent US20120136011A1, “COMPOUNDS AND METHODS FOR SKIN REPAIR” (ALLERGAN, INC., priority 2010, published 2012).

Legend:
Sprague-Dawley rats [1] = assay: Incisional skin wound model, 14 day pilot study, topical treatment; assay type: in vivo
Protocol: (§1) Incisional Skin Wound Model and Assessment. Sprague-Dawley rats at 180-200 gram were anesthetized with isoflourane. After shaving, a 2-cm long incision was made, reaching the deep fascia on the back skin of rats under sterile conditions. The wounds were immediately closed with 4-0 sutures. A 14 day pilot study was carried out. The animals were topically treated with vehicle or Compound 1 at 0.004% twice daily. The vehicle contained ethanol 30%, propylene glycol 12%, dipropylene glycol 5%, benzyl alcohol 5%, glycerol 3% and normal saline 45%. The wound was photographed daily; biopsy was performed at 2, 3, 7 and 14 days post-surgery for histopathology and molecular biology analysis.
(§2) The wound tissue was biopsied for histopathology on day 3, 14 and 70. To observe the skin wound, paraffin-embedded wound sections were made. Regular H&E staining was carried out in comparison with Masson trichrome and/or Picosirus red to visualize the collagen fibers. To monitor myofibroblasts in skin wound, the sections were immunohistochemically stained to identify alpha-smooth muscle actin. To assess wound appearance, all the scar photos were mixed together by the end of each study. The scar severity was scored on a scale of 0 to 10, with 0 being invisible, 1 the minimal and 10 the worst. Each scar was divided into 4 regions, separated by suture sites; each quarter was scored independently; the mean of the 4 part scores was recorded as the gross score of each wound.

Sprague-Dawley rats [2] = assay: Incisional skin wound study comparing Compound 1 and TGF-β3 (intradermal injection, then topical); assay type: in vivo; conditions: for number of neutrophils counted in three sections of H&E stained tissues: 3 days post-surgery, n=5, vehicle 60.6±30, not statistically significant; for macroscopic surface appearance of wound sites / abnormal regions (dense, red, fine parallel fibers) on Picrosirius red stained sections: 70 days post-surgery; for abnormal regions (dense, red, fine parallel fibers) on Picrosirius red stained sections: versus vehicle; for widths of the abnormal structured dermis regions, Masson trichrome / gap width in-between the normal fibrils, Picrosirius red / collagen fibril type at wound sites, Picrosirius red under polarized light: day 14; for widths of the abnormal structured dermis regions, Masson trichrome / size of residual scar regions, Masson trichrome: versus vehicle treated group, p<0.01-0.05; for gap width in-between the normal fibrils, Picrosirius red: versus vehicle-treated group, p<0.05; for collagen fibril type at wound sites, Picrosirius red under polarized light: yellow large bundles versus green type III collagen; for size of residual scar regions, Masson trichrome: day 70
Protocol: as §1
A similar skin wound study was also performed comparing the effects of Compound 1 and TGF-β3. In this study, intradermal injections of Compound 1 at 0.004%, TGF-β3 at 100 ng/200 μl or vehicle were given right before closing the wounds. Afterward, TGF-β3 was injected two more times, on day 1 and 2, and Compound 1 and vehicle were topically applied twice a day for the duration of the study. The vehicle was PBS with 0.1% BSA and 4 mM HCl in a total volume of 200 μl for injection. Skin wounds were imaged on day 3, 7, 14, and 70.
as §2

[3] = system: human fetal skin fibroblasts (CRL-7129); assay: Collagen type I production in cultured fetal skin fibroblasts (Western blot); assay type: cell-based
[4] = system: human adult skin fibroblasts (CRL-7346); assay: Collagen type I production in cultured adult skin fibroblasts (Western blot); assay type: cell-based
[5] = day 14, Masson Trichrome, versus vehicle
[6] = vehicle 100%, 48 hours treatment

| Molecule | epidermal layer thickness and structure at wound site (Sprague-Dawley rats [1]; 7 days post-skin incision, 0.004% topical twice daily) | epidermal thickness of vehicle-treated skin relative to Compound 1 treated epidermis (Sprague-Dawley rats [1]; 7 days post-skin incision, vehicle had epidermal hyperplasia) | gross skin scar appearance (Sprague-Dawley rats [1]; 14 days post-surgery, versus vehicle-treated animals) | overall size of epidermal defects, vehicle-treated versus Compound 1 treated wounds (Sprague-Dawley rats [1]; day 3 post-surgery, 0.004% topical twice daily) | skin wound samples showing closed epidermis filled with keratinocytes (Sprague-Dawley rats [1]; day 3 post-surgery, 0.004% topical twice daily, vehicle 33%) | number of myofibroblasts (α-SMA-positive cells) (Sprague-Dawley rats [1]; day 3 samples, vehicle control 38±6.15/3 sections) | scar width (abnormal fiber belt) in the middle and bottom parts of scars (Sprague-Dawley rats [1]; [5]) | scar width at the superficial region (Sprague-Dawley rats [1]; [5]) | neutrophil (polymorphonuclear cell) infiltration at wound sites (Sprague-Dawley rats [1]; days 2 and 3 post-surgery, versus vehicle) | number of neutrophils counted in three sections of H&E stained tissues (Sprague-Dawley rats [2]) | macroscopic surface appearance of wound sites (Sprague-Dawley rats [2]) | abnormal regions (dense, red, fine parallel fibers) on Picrosirius red stained sections (Sprague-Dawley rats [2]) | widths of the abnormal structured dermis regions, Masson trichrome (Sprague-Dawley rats [2]) | gap width in-between the normal fibrils, Picrosirius red (Sprague-Dawley rats [2]) | collagen fibril type at wound sites, Picrosirius red under polarized light (Sprague-Dawley rats [2]) | size of residual scar regions, Masson trichrome (Sprague-Dawley rats [2]) | collagen type-1 production (in words) [3] | collagen type-1 production relative to vehicle [3, 6] | collagen type-1 production (in words) [4] | collagen type-1 production relative to vehicle [4, 6] |
| --- | --- | --- | --- | --- | --- | --- | --- | --- | --- | --- | --- | --- | --- | --- | --- | --- | --- | --- | --- | --- |
| CC1(C)C(=O)[C@H](C/C=C\CCCC(=O)O)[C@@H](/C=C/[C@H](O)CCc2sc3ccccc3c2Cl)[C@@H]1O [Compound 1] | thickness close to the nearby normal epidermis | 3 times | smaller and softer skin scar | two times larger for vehicle-treated wounds | 80% | 25.8±7.45 /3 sections | significantly reduced | only a tendency to decrease | significantly reduced | 31.4±8 | wound sites were not even detectable | largely absent | significantly smaller | significantly narrower | large yellow-stained collagen bundles almost crossing over the entire wound sites | remarkably smaller | upregulated | 200% | upregulated | 128% |
| TGF-β3: a leading treatment for wounds, reportedly reducing skin scar in both animals and human | – | – | – | – | – | – | – | – | – | 53.8±17 | still showed traces of wounds | largely absent | significantly smaller | significantly narrower | some green fibers at the bottom of the wounds | remarkably smaller | – | – | – | – |
